Results: publication PMC12281424, “A Rac-specific competitive inhibitor of guanine nucleotide binding reduces metastasis in triple-negative breast cancer” (Cell Reports Medicine, 2025)

How the values were obtained:
[1] = target: CaMKIIδ(h) (Homo sapiens, UniProt Q13557); assay: Kinase Profiler; assay type: biochemical
Protocol: (§1) The kinase profiler was performed by the company Eurofins (Discovery, Panlab and Cerep).

[2] = target: HIPK4(h) (Homo sapiens, UniProt Q8NE63); assay: Kinase Profiler; assay type: biochemical
Protocol: as §1

[3] = target: CaMKI(h) (Homo sapiens, UniProt Q14012); assay: Kinase Profiler; assay type: biochemical
Protocol: (§2) Blood cell counts, kinase profiler, safety screen, bacterial cytotoxicity, Ames, micronucleus assays were performed by the company Eurofins (France). The kinase profiler was performed by the company Eurofins (Discovery, Panlab and Cerep).

[4] = target: MLK1(h) (Homo sapiens, UniProt P80192); assay: Kinase Profiler; assay type: biochemical
Protocol: as §2

[5] = system: breast CAF spheroids; assay: 3D invasion assay; assay type: cell-based, human; settings: 10^-5 M
Protocol: Figure 5 A41 decreases growth and invasiveness of TNBC cells in vitro (A) Representative images of RAC-GTP levels (red) in MDA-MB-468 Luc cells in the absence (CTL) and presence of EHT1864, NSC23766, or A41 (1 h at 10 μM) (left). Luciferase (Luc, green) was used to detect the cells. RAC-GTP mean fluorescence intensity was quantified inside the cell area (right) (n = 31–37 cells from 3 independent experiments; ∗p < 0.05, ∗∗∗p < 0.001) (scale bars: 10 μm). […] (C) Quantification of colony number of indicated cancer cell lines in the presence of A41 (10 μM) expressed as the percentage of control in the absence of A41. Results shown are representative of N > 3 independent experiments. (D) Immunoblot analysis and corresponding quantification of AKT and P44/42 expression and phosphorylation (pAKT, p44/42) in MDA-MB-468 Luc cells in the absence (−) and presence of NSC23766 or A41 (1 h at 10^−5 M). […] (E) 3D invasion assay of MDA-MB-468 Luc and cancer-associated fibroblasts (CAFs) and corresponding quantification (scale bars: 200 μm). […]
3D-spheroids were obtained, according the protocol previously described,[62] by re-suspending cells at a concentration of 1.25 × 10^4 cells/ml in 20% Methyl-cellulose/80% DMEM 10% FBS. […] Invasion was monitored by fully automated Dmi6000b Wide Field Fluorescence Microscope (Leica Microsystems, Wetzlar, Germany) during 48h.

[6] = system: Sodium Channel, Site 2; assay: Safety screen; assay type: binding, rat
Protocol: Blood cell counts, kinase profiler, safety screen, bacterial cytotoxicity, Ames, micronucleus assays were performed by the company Eurofins (France).

[7] = target: MEK1(h) (Homo sapiens, UniProt Q02750); assay: Kinase Profiler; assay type: biochemical
Protocol: as §1

[8] = target: Yes(h) (Homo sapiens, UniProt P07947); assay: Kinase Profiler; assay type: biochemical
Yes(h), sequence (P07947 whole entry): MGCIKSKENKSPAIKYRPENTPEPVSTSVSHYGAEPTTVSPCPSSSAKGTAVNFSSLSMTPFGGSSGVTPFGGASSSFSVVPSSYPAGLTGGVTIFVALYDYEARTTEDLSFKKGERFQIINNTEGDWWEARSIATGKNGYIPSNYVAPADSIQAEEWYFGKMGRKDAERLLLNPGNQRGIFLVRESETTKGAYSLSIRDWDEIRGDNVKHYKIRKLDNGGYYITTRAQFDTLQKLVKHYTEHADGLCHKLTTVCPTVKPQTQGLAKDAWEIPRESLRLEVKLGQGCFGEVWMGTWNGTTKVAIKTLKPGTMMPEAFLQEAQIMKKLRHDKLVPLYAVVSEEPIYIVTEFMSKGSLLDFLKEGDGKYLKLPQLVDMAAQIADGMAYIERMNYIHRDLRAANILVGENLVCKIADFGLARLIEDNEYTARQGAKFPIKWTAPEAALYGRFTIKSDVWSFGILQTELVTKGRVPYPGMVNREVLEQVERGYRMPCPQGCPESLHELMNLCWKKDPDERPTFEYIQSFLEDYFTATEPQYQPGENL
Protocol: as §1

HIPK4(h), sequence (Q8NE63 whole entry): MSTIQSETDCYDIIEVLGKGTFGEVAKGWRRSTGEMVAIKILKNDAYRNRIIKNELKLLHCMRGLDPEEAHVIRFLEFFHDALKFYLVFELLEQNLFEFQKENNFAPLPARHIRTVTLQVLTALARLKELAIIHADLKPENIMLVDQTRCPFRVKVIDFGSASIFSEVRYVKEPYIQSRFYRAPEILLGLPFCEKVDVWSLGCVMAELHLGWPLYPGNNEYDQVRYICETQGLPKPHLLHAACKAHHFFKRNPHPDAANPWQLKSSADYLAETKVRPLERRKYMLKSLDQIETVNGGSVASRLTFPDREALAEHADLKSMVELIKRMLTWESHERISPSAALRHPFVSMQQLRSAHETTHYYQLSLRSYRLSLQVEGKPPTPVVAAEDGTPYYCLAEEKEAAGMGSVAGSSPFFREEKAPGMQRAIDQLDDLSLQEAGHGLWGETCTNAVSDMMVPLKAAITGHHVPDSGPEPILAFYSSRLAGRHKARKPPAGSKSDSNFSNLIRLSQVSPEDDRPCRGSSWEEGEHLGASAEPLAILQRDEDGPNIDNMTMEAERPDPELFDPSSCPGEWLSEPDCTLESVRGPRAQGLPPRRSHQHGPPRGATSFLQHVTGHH
CaMKI(h), sequence (Q14012 whole entry): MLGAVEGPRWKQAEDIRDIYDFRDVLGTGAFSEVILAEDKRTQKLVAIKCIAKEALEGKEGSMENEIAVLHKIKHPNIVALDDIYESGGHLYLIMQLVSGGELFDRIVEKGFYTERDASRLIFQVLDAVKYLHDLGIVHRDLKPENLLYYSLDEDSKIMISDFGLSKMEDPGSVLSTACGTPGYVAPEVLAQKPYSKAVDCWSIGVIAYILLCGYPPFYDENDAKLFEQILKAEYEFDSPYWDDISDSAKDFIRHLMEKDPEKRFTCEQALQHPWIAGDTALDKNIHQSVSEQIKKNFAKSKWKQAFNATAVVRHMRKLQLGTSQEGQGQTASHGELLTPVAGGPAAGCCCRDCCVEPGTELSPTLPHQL
MEK1(h), sequence (Q02750 whole entry): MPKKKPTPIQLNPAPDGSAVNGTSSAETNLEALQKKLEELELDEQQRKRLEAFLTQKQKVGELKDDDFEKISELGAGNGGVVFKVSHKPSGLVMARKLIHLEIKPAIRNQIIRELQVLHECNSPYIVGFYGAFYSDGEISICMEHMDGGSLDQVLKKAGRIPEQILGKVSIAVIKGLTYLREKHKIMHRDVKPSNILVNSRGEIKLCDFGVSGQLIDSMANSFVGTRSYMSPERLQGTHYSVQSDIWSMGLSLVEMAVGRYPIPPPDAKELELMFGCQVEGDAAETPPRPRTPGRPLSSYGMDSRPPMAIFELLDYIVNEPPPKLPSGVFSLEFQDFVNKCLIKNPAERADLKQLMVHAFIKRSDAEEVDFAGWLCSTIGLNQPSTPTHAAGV
MLK1(h), sequence (P80192 whole entry): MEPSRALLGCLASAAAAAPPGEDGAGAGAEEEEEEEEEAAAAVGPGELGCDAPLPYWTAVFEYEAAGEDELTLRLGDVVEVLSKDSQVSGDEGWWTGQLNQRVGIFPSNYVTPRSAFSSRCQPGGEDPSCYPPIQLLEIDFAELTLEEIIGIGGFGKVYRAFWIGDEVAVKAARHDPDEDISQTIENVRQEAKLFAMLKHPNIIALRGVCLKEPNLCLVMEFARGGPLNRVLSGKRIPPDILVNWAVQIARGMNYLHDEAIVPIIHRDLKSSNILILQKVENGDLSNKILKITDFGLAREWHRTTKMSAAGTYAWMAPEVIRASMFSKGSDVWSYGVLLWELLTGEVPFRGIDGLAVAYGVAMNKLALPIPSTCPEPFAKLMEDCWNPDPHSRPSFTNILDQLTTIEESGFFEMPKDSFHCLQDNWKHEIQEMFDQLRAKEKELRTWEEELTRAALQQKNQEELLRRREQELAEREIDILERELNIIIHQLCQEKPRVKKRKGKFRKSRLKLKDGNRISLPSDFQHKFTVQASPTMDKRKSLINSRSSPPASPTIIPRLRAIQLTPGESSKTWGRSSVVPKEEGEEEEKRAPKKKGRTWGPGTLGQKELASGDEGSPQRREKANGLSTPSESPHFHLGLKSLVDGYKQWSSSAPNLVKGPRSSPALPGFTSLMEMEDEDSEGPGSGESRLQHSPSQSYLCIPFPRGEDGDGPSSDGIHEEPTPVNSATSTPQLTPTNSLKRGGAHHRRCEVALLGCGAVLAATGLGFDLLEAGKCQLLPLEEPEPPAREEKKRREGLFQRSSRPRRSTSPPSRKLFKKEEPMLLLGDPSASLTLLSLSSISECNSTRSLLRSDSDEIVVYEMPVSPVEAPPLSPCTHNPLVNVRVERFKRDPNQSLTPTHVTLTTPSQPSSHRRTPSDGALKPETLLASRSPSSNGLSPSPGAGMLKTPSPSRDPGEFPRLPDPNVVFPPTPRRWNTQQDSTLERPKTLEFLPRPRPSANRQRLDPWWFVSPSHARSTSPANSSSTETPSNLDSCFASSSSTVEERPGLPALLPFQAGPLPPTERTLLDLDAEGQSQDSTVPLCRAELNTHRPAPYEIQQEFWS
CaMKIIδ(h), sequence (Q13557 whole entry): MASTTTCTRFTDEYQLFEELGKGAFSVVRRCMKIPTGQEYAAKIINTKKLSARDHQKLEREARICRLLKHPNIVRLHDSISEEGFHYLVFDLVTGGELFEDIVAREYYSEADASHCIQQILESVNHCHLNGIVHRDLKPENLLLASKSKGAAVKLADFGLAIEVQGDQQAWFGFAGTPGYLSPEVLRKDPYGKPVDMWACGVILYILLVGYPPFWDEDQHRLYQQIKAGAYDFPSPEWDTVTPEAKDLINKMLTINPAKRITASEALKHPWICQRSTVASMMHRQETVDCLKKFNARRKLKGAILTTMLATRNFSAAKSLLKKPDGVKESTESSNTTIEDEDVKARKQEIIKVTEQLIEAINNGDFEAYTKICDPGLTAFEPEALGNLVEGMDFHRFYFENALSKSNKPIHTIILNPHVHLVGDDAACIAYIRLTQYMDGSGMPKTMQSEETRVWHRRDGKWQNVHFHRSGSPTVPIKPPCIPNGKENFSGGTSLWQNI

Structure (SMILES): COc1ccc(OC)c(NS(=O)(=O)c2ccc(NC(=O)CCSc3ccc(C)cc3)cc2)c1 [Compound A41]
- Activity(%) [1]: 92%
- Activity(%) [2]: 105%
- Activity(%) [3]: 114%
- Activity(%) [4]: 102%
- invasion of CAF spheroids [5]: anti-invasion property
- % inh. [6]: 57%
- Activity(%) [7]: 97%
- Activity(%) [8]: 110%
